≈ marks a conversion by molar mass, not a printed value.
Key:
HuTu80 [1] = experiment: Selectivity index, ratio of IC50 for HUVEC to IC50 for human HuTu 80 cells
[2] = Cell cycle arrest in human HuTu 80 cells assessed as accumulation at S phase at 3 ug/ml after 48 hrs by propidium iodide staining based flow cytometry (reference value: 15.79 to 15.8%); assay type: functional; details: HuTu80
HuTu80 [3] = experiment: Induction of apoptosis in human HuTu 80 cells assessed as late apoptotic cells at 3 ug/ml after 48 hrs by Annexin V/propidium iodide staining based flow cytometry (reference value: 1.6%); assay type: functional
[4] = (§1) Cytotoxicity against HEK293 cells assessed as reduction in cell survival after 48 hrs by MTT assay; assay type: cell-based, Homo sapiens; details: human, HEK293 cells
HEK293 [5] = experiment: as §1; assay type: cell-based, Homo sapiens; details: Homo sapiens, HEK293, 48 h
Mus musculus [6] = experiment: Acute toxicity in Kunming mouse assessed as induction of salivation at 500 mg/kg, administered as single dose after 14 days; assay type: organism-based; details: in vivo, 336 h
Mus musculus [7] = experiment: Acute toxicity in Kunming mouse assessed as tremor induction at 500 mg/kg, administered as single dose after 14 days; assay type: organism-based; details: in vivo, 336 h
PANC-1 = experiment: Selectivity index, ratio of IC50 for HUVEC to IC50 for human PANC1 cells
[8] = Cell cycle arrest in human HuTu 80 cells assessed as accumulation at subG1 phase at 3 ug/ml after 48 hrs by propidium iodide staining based flow cytometry (reference value: 2.27 to 2.3%); assay type: functional; details: HuTu80
Mus musculus [9] = experiment: Acute toxicity in Kunming mouse assessed as physical/abnormal changes in fur at 500 mg/kg, administered as single dose after 14 days; assay type: organism-based; details: in vivo, 336 h
4T1 [10] = experiment: Antiproliferative activity against mouse 4T1 cells after 48 hrs by MTT assay; assay type: functional, cell-based; details: 4T1, 48 h
Mus musculus [11] = experiment: Acute toxicity in Kunming mouse assessed as behavior pattern abnormality at 500 mg/kg, administered as single dose after 14 days; assay type: organism-based; details: in vivo, 336 h
HEK293 [12] = experiment: Selectivity index, ratio of IC50 for HEK293 cells to IC50 for mouse 4T1 cells; assay type: functional
[13] = (§2) Cytotoxicity against HUVEC assessed as reduction in cell survival after 48 hrs by MTT assay; assay type: cell-based, Homo sapiens; details: human, HUVEC cells
HUVEC = experiment: as §2; assay type: cell-based, Homo sapiens; details: Homo sapiens, HUVEC, 48 h
Mus musculus [14] = experiment: Acute toxicity in Kunming mouse assessed as physical/abnormal changes in skin at 500 mg/kg, administered as single dose after 14 days; assay type: organism-based; details: in vivo, 336 h
[15] = Cell cycle arrest in human HuTu 80 cells assessed as accumulation at G2/M phase at 3 ug/ml after 48 hrs by propidium iodide staining based flow cytometry (reference value: 23.2%); assay type: functional; details: HuTu80
[16] = Antiproliferative activity against human HuTu 80 cells after 48 hrs by MTT assay; assay type: functional, cell-based; details: HuTu80, 48 h
HEK293 [17] = experiment: Selectivity index, ratio of IC50 for HEK293 cells to IC50 for human HuTu 80 cells; assay type: functional
HEK293 [18] = experiment: Selectivity index, ratio of IC50 for HEK293 cells to IC50 for human PANC1 cells; assay type: functional
4T1 [19] = experiment: Selectivity index, ratio of IC50 for HUVEC to IC50 for mouse 4T1 cells
[20] = Cell cycle arrest in human HuTu 80 cells assessed as accumulation at G1 phase at 3 ug/ml after 48 hrs by propidium iodide staining based flow cytometry (reference value: 43.3 to 43.32%); assay type: functional; details: HuTu80
Mus musculus [21] = experiment: Acute toxicity in Kunming mouse assessed as physical/abnormal changes in eyes at 500 mg/kg, administered as single dose after 14 days; assay type: organism-based; details: in vivo, 336 h
HuTu80 [22] = experiment: Induction of apoptosis in human HuTu 80 cells assessed as live cells at 3 ug/ml after 48 hrs by Annexin V/propidium iodide staining based flow cytometry (reference value: 92.5%); assay type: functional
HuTu80 [23] = experiment: Induction of apoptosis in human HuTu 80 cells assessed as necrotic cells at 3 ug/ml after 48 hrs by Annexin V/propidium iodide staining based flow cytometry (reference value: 5.3%); assay type: functional
Mus musculus [24] = experiment: Acute toxicity in Kunming mouse assessed as survival at 500 mg/kg, administered as single dose measured on day 14 post dose; assay type: organism-based; details: in vivo
Mus musculus [25] = experiment: Acute toxicity in Kunming mouse assessed as structural abnormality in liver at 500 mg/kg, administered as single dose after 14 days by hematoxylin and eosin staining based histological analysis; assay type: organism-based; details: in vivo, 336 h
Mus musculus [26] = experiment: Acute toxicity in Kunming mouse assessed as structural abnormality in kidney at 500 mg/kg, administered as single dose after 14 days by hematoxylin and eosin staining based histological analysis; assay type: organism-based; details: in vivo, 336 h
HuTu80 [27] = experiment: Induction of apoptosis in human HuTu 80 cells assessed as early apoptotic cells at 3 ug/ml after 48 hrs by Annexin V/propidium iodide staining based flow cytometry (reference value: 0.5%); assay type: functional
Mus musculus [28] = experiment: Acute toxicity in Kunming mouse assessed as sleep pattern abnormality at 500 mg/kg, administered as single dose after 14 days; assay type: organism-based; details: in vivo, 336 h
[29] = Antiproliferative activity against human PANC1 cells after 48 hrs by MTT assay; assay type: functional, cell-based; details: PANC-1, 48 h
Mus musculus [30] = experiment: Acute toxicity in Kunming mouse assessed as physical/abnormal changes in mucus membrane at 500 mg/kg, administered as single dose after 14 days; assay type: organism-based; details: in vivo, 336 h

O=c1oc2ccccc2c(O)c1C(c1ccc(F)c(F)c1)c1c(O)c2ccccc2oc1=O
Ratio IC50 (HuTu80 [1]): 7.5 | Activity [2]: 18.5% | Activity (HuTu80 [3]): 3.2% | IC90 at 48 h [4]: 221 µg/mL (≈ 492 µM) | IC50 (HEK293 [5]): 107 µg/mL (≈ 239 µM) | Activity (Mus musculus [6]): Non-toxic | Activity (Mus musculus [7]): Non-toxic | Ratio IC50 (PANC-1): 1.36 | Activity [8]: 25.1% | Activity (Mus musculus [9]): Non-toxic | IC50 (4T1 [10]): 47.9 µg/mL (≈ 107 µM) | IC90 (4T1 [10]): 98.4 µg/mL (≈ 219 µM) | Activity (Mus musculus [11]): Non-toxic | Ratio IC50 (HEK293 [12]): 2.2 | IC90 at 48 h [13]: 276 µg/mL (≈ 616 µM) | IC50 (HUVEC): 112 µg/mL (≈ 251 µM) | Activity (Mus musculus [14]): Non-toxic | Activity [15]: 15.3% | IC50 [16]: 15 µg/mL (≈ 33.5 µM) | IC90 [16]: 28 µg/mL (≈ 62.4 µM) | Ratio IC50 (HEK293 [17]): 7.1 | Ratio IC50 (HEK293 [18]): 1.3 | Ratio IC50 (4T1 [19]): 2.3 | Activity [20]: 26.1% | Activity (Mus musculus [21]): Non-toxic | Activity (HuTu80 [22]): 88% | Activity (HuTu80 [23]): 7.5% | Activity (Mus musculus [24]): Non-toxic | Activity (Mus musculus [25]): Non-toxic | Activity (Mus musculus [26]): Non-toxic | Activity (HuTu80 [27]): 1.2% | Activity (Mus musculus [28]): Non-toxic | IC50 [29]: 82.4 µg/mL (≈ 184 µM) | IC90 [29]: 155 µg/mL (≈ 346 µM) | Activity (Mus musculus [30]): Non-toxic

CC1(C)CC(=O)C2=C(C1)OC(N)=C(C#N)C2c1cc(C(F)(F)F)cc(C(F)(F)F)c1 (stereo not drawn)
IC50 (4T1 [10]): > 300 µg/mL | IC90 (4T1 [10]): > 500 µg/mL | IC50 [16]: > 300 µg/mL | IC90 [16]: > 500 µg/mL | IC50 [29]: > 300 µg/mL | IC90 [29]: > 500 µg/mL

N#CC1=C(N)Oc2c(c(=O)oc3ccccc23)C1c1ccc([N+](=O)[O-])cc1 (stereo not drawn)
IC50 (4T1 [10]): 142 µg/mL (≈ 394 µM) | IC90 (4T1 [10]): 289 µg/mL (≈ 801 µM) | IC50 [16]: 97 µg/mL (≈ 268 µM) | IC90 [16]: 187 µg/mL (≈ 518 µM) | IC50 [29]: 218 µg/mL (≈ 604 µM) | IC90 [29]: 348 µg/mL (≈ 963 µM)

N#CC1=C(N)Oc2c(c(=O)oc3ccccc23)C1c1ccc(Br)cc1 (stereo not drawn)
IC50 (4T1 [10]): > 300 µg/mL | IC90 (4T1 [10]): > 500 µg/mL | IC50 [16]: > 300 µg/mL | IC90 [16]: 447 µg/mL (≈ 1130 µM) | IC50 [29]: > 300 µg/mL | IC90 [29]: > 500 µg/mL

COc1cccc(C2C(C#N)=C(N)OC3=C2C(=O)CC(C)(C)C3)c1 (stereo not drawn)
IC50 (4T1 [10]): 248 µg/mL (≈ 764 µM) | IC90 (4T1 [10]): > 500 µg/mL | IC50 [16]: 283 µg/mL (≈ 873 µM) | IC90 [16]: > 500 µg/mL | IC50 [29]: > 300 µg/mL | IC90 [29]: > 500 µg/mL

N#Cc1ccc(C(c2c(O)c3ccccc3oc2=O)c2c(O)c3ccccc3oc2=O)cc1
Ratio IC50 (HuTu80 [1]): 3.4 | IC90 at 48 h [4]: 343 µg/mL (≈ 783 µM) | IC50 (HEK293 [5]): 180 µg/mL (≈ 411 µM) | Activity (Mus musculus [6]): Non-toxic | Activity (Mus musculus [7]): Non-toxic | Ratio IC50 (PANC-1): 1.73 | Activity (Mus musculus [9]): Non-toxic | IC50 (4T1 [10]): 51.5 µg/mL (≈ 118 µM) | IC90 (4T1 [10]): 102 µg/mL (≈ 233 µM) | Activity (Mus musculus [11]): Non-toxic | Ratio IC50 (HEK293 [12]): 3.5 | IC90 at 48 h [13]: 322 µg/mL (≈ 735 µM) | IC50 (HUVEC): 162 µg/mL (≈ 371 µM) | Activity (Mus musculus [14]): Non-toxic | IC50 [16]: 47.6 µg/mL (≈ 109 µM) | IC90 [16]: 98.3 µg/mL (≈ 225 µM) | Ratio IC50 (HEK293 [17]): 3.8 | Ratio IC50 (HEK293 [18]): 1.9 | Ratio IC50 (4T1 [19]): 3.1 | Activity (Mus musculus [21]): Non-toxic | Activity (Mus musculus [24]): Non-toxic | Activity (Mus musculus [25]): Non-toxic | Activity (Mus musculus [26]): Non-toxic | Activity (Mus musculus [28]): Non-toxic | IC50 [29]: 93.5 µg/mL (≈ 214 µM) | IC90 [29]: 202 µg/mL (≈ 461 µM) | Activity (Mus musculus [30]): Non-toxic

N#CC1=C(N)OC2=C(C(=O)CC2)C1c1cccc(C#N)c1 (stereo not drawn)
IC50 (4T1 [10]): 125 µg/mL (≈ 452 µM) | IC90 (4T1 [10]): 299 µg/mL (≈ 1080 µM) | IC50 [16]: 191 µg/mL (≈ 690 µM) | IC90 [16]: 381 µg/mL (≈ 1370 µM) | IC50 [29]: 143 µg/mL (≈ 515 µM) | IC90 [29]: 317 µg/mL (≈ 1140 µM)

CC1(C)CC(=O)C2=C(C1)OC(N)=C(C#N)C2c1cc(F)c(F)c(F)c1 (stereo not drawn)
IC50 (4T1 [10]): 241 µg/mL (≈ 692 µM) | IC90 (4T1 [10]): > 500 µg/mL | IC50 [16]: 297 µg/mL (≈ 854 µM) | IC90 [16]: > 500 µg/mL | IC50 [29]: 283 µg/mL (≈ 812 µM) | IC90 [29]: > 500 µg/mL
